{"source": "patent US20090227503A1", "about": "“PARATHYROID HORMONE TREATMENT FOR ENHANCED ALLOGRAFT AND TISSUE-ENGINEERED RECONSTRUCTION OF BONE DEFECTS” (UNIVERSITY OF ROCHESTER, priority 2008, published 2009)", "key": {"[1]": {"system": "grafted femurs", "test": "Histology of grafted femurs (Example 4)", "type": "in vivo, mice", "procedure": "A second cohort of 16 animals underwent the same surgery with sacrifice of 8 animals at 4 weeks and 8 animals at 6 weeks post-surgery to evaluate the degree of vascularization of the graft and callus region using vascular profusion as described previously (Duvall 2004). Half of the animals were treated with PTH, and the other half with saline. After micro-CT imaging for vascular analysis, specimens were processed for histology. Mid-sagittal sections were stained with alcian blue, hematoxylin, eosin and orange G. Micro-CT images were manually resliced using NIH ImageJ software in the same plane as the histology sections to compare the imaging modalities (data not shown)."}, "[2]": {"system": "grafted femurs", "test": "Mouse femoral allograft, micro-CT of grafted femurs (Example 4)", "type": "in vivo, mice", "procedure": "Four-mm long bone allografts were harvested from donor mice, and were processed and implanted into […] defects 195 in the femur of other mice and secured in place using a stainless steel intramedullary pin 190, as shown in FIG. 13. One week after surgery, daily injections of 40 μg/kg hrPTH (1-34) (Lilly, Inc., Indianapolis, Ind.) were initiated in half of the mice, while the others received injections of saline control. Weekly x-rays were taken to monitor progression (Faxitron X-Ray LLC, Wheeling, Ill.). One cohort of the study groups used 14 mice from each treatment (PTH and control) for imaging and mechanical material testing and were sacrificed 6 weeks after surgery. Each femur was harvested by disarticulating the hip and knee and removing the intramedullary stainless-steel pin. Specimens were moistened with saline and frozen at -20° C. until thawed for micro-CT imaging and torsion testing. Specimens were scanned at […] isotropic resolution using the Scanco VivaCT 40 (Scanco Medical AG, Bassersdorf, Switzerland). From these 3D images, the graft and callus bone volumes (BVGraft, BVCallus) were measured by manual segmentation, followed by standardized thresholding at a grayscale corresponding to 750 mgHA/cm^3. The cross-sectional polar moment of […]) were computed for each slice throughout the grafted region and the maximum, minimum and average […]) were investigated to determine their contribution to the biomechanics of the grafted femurs. The Union Ratio was also calculated. The Union Ratio measures the graft surface area upon which mineralized callus has formed. If the voxels adjacent to the graft surface are boney callus, the area of that region of the graft is measured and normalized to the total graft surface area. Imaging data (not shown) indicated the bare surface of the graft in blue, with regions of union to the callus depicted as red. Each half (proximal and distal) of the graft was evaluated separately and the lesser ratio of union area to total graft surface area was given as the Union Ratio for that specimen. Callus formation that bridged from host-to-host over the graft was determined by evaluating serial axial cross sections from micro-CT images and given a binary result. These samples were then mechanically tested in torsion. Yield torque (TYield), ultimate torque (TUlt), torsional rigidity (TR), toughness (or work to failure) and the twist at ultimate torque were determined for each specimen. Finally, the mode of failure for each specimen was determined using an x-ray image analysis (not shown). Bone volume quantification was performed from micro-CT imaging. Quantification of micro-CT results for a control and PTH treated (FIGS. 16E-H) specimen was performed. Cross sectional polar moment of inertia, graft were determined. Callus and intramedullary callus bone volumes were quantified for each specimen in a region of interest that extended from the proximal axial slice containing bone graft through the distal slice. These regions were manually segmented and quantified for bone volume, bone mineral density and bone mineral content at a threshold corresponding to 750 mgHA/cm^3. The total depth of penetration of callus into the intramedullary cavity from both ends was also measured. The trabecular-like region within the shell of the exterior callus was segmented for trabecular analysis to quantify BVF, Tb.No., Tb.Th., and Tb.Sp."}, "[3]": {"system": "femoral allograft", "test": "Mouse femoral allograft, torsion testing of grafted femurs (Example 1)", "type": "in vivo, C57B1/6 mice", "procedure": "Femoral allograft surgeries were performed on C57B1/6 mice as previously described. Briefly, a 4 mm mid-diaphyseal segment was removed by osteotomizing the femur and a processed allograft was implanted and secured in place with a stainless steel intramedullary (IM) pin. After 1 week, 8 mice were given daily subcutaneously injections of 0.4 mg/kg PTH (1-34) (Forteo, Eli Lilly and Company, Indianapolis, Ind.) while 5 mice with grafts were given the same volume of saline daily, serving as controls. Animals were sacrificed 6 weeks after surgery, the grafted femurs were carefully dissected and cleaned without disrupting the callus, and the IM pin was carefully removed. The femurs were then stored frozen at −80° C. until evaluation. After imaging, the ends of the femurs were cemented into 6.35 mm square aluminum tubes using PMMA in a custom jig to ensure axial alignment and maintain a gage length of 7.3±0.8 mm. Samples were then mounted on an EnduraTec TestBench™ system with a 200 N·mm torque cell (Bose Corp., Minnetonka, Minn.) and tested in torsion at a rate of […] until failure to determine the torsional stiffness, ultimate torque, ultimate rotation, and strain energy to failure. Mode of Failure was determined by x-ray after testing. As described previously (Reynolds D G, et al; J. Biomech. 2007; E-pub May 22) the mode of failure can be categorized by location of the failure. “Pre-union” failures occur at the graft-host junction resulting in an intact graft that simply pulled out from the callus. “Early union” failures occur near the graft-host junction, but involve partial fragmentation of the graft or host bone."}, "[4]": {"settings": "40 μg/kg hrPTH (1-34) daily from week 1, 6 weeks after surgery, mean, n = 14"}, "[5]": {"settings": "vs saline, 6 weeks after surgery"}, "[6]": {"settings": "0.4 mg/kg PTH (1-34) s.c. daily, 6 weeks after surgery, Mean (Standard Deviation)"}, "[7]": {"settings": "of 8 PTH treated mice, all 5 controls pre-union"}}, "data": [{"compound": "CC[C@H](C)[C@H](NC(=O)[C@H](CCC(=O)O)NC(=O)[C@H](CO)NC(=O)[C@@H](NC(=O)[C@@H](N)CO)C(C)C)C(=O)N[C@@H](CCC(N)=O)C(=O)N[C@@H](CC(C)C)C(=O)N[C@@H](CCSC)C(=O)N[C@@H](Cc1cnc[nH]1)C(=O)N[C@@H](CC(N)=O)C(=O)N[C@@H](CC(C)C)C(=O)NCC(=O)N[C@@H](CCCCN)C(=O)N[C@@H](Cc1cnc[nH]1)C(=O)N[C@@H](CC(C)C)C(=O)N[C@@H](CC(N)=O)C(=O)N[C@@H](CO)C(=O)N[C@@H](CCSC)C(=O)N[C@@H](CCC(=O)O)C(=O)N[C@@H](CCCN=C(N)N)C(=O)N[C@H](C(=O)N[C@@H](CCC(=O)O)C(=O)N[C@@H](Cc1c[nH]c2ccccc12)C(=O)N[C@@H](CC(C)C)C(=O)N[C@@H](CCCN=C(N)N)C(=O)N[C@@H](CCCCN)C(=O)N[C@@H](CCCCN)C(=O)N[C@@H](CC(C)C)C(=O)N[C@@H](CCC(N)=O)C(=O)N[C@@H](CC(=O)O)C(=O)N[C@H](C(=O)N[C@@H](Cc1cnc[nH]1)C(=O)N[C@@H](CC(N)=O)C(=O)N[C@@H](Cc1ccccc1)C(=O)O)C(C)C)C(C)C", "note": "[PTH, PTH (1-34)]", "values": [{"measurement": "osteoclastic graft resorption", "setting": "[1]; PTH treatment for 6 weeks", "value": "did not stimulate osteoclastic graft resorption"}, {"measurement": "cartilage formation at the site of bone injury", "setting": "[1]; persisted through 4 weeks after surgery", "value": "Cartilage formation was increased"}, {"measurement": "BMCCallus", "setting": "[2]; [4]", "value": 2.7, "unit": "mgHA"}, {"measurement": "BMDCallus", "setting": "[2]; [4]", "value": 667, "unit": "mgHA/cc"}, {"measurement": "BVCallus", "setting": "[2]; [4]", "value": 1.04, "unit": "mm^3/mm"}, {"measurement": "BVGraft", "setting": "[2]; [4]", "value": 0.82, "unit": "mm^3/mm"}, {"measurement": "BVIntramed", "setting": "[2]; [4]", "value": 0.2, "unit": "mm^3/mm"}, {"measurement": "Callus Tb. N.", "setting": "[2]; [4]", "value": 13.2}, {"measurement": "Callus Tb. Sp.", "setting": "[2]; [4]", "value": 0.065}, {"measurement": "Callus Tb. Th.", "setting": "[2]; [4]", "value": 0.149}, {"measurement": "Callus trabecular BVF", "setting": "[2]; [4]", "value": 0.576}, {"measurement": "Intramed Penetration Depth", "setting": "[2]; [4]", "value": 2.22, "unit": "mm"}, {"measurement": "PMIAve", "setting": "[2]; [4]", "value": 1.16, "unit": "mm^4"}, {"measurement": "PMIMax", "setting": "[2]; [4]", "value": 2.17, "unit": "mm^4"}, {"measurement": "PMIMin", "setting": "[2]; [4]", "value": 0.51, "unit": "mm^4"}, {"measurement": "Union Ratio", "setting": "[2]; [4]", "value": 0.277}, {"measurement": "ratio of callus BMCPTH:BMCSaline", "setting": "[2]; 6 weeks", "value": 1.67}, {"measurement": "maximum outer radius of the callus", "setting": "[2]; 6 weeks, saline 1.8±0.2 mm", "value": "1.7±0.3", "unit": "mm"}, {"measurement": "specimens with bridging over the graft from host-to-host", "setting": "[2]; 6 weeks, saline 6 of 14", "value": "8 of 14"}, {"measurement": "Union Ratio greater in PTH treated animals", "setting": "[2]; across all samples, vs saline", "value": 2.8, "unit": "fold"}, {"measurement": "Intramedullary penetration depth", "setting": "[2]; grafts from PTH-treated animals, saline 1.7±0.6 mm", "value": "2.2±0.7", "unit": "mm"}, {"measurement": "Union Ratio of the single PTH-treated specimen of FIG. 15H", "setting": "[2]; one specimen, saline control specimen 0.02", "value": 0.31}, {"measurement": "bone mineral density of the callus, less dense by", "setting": "[2]; vs saline, 6 weeks", "value": 14, "unit": "%"}, {"measurement": "bone volume fraction within the callus, greater by", "setting": "[2]; vs saline, 6 weeks", "value": 52, "unit": "%"}, {"measurement": "graft bone volume (graft resorption)", "setting": "[2]; vs saline, 6 weeks", "value": "not different between treatment groups"}, {"measurement": "net callus total mineral content, greater by", "setting": "[2]; vs saline, 6 weeks", "value": 67, "unit": "%"}, {"measurement": "increase in BVCallus", "setting": "[2]; [5]", "value": 93, "unit": "%"}, {"measurement": "increase in BVIntramed", "setting": "[2]; [5]", "value": 217, "unit": "%"}, {"measurement": "increase in PMIAve", "setting": "[2]; [5]", "value": 38, "unit": "%"}, {"measurement": "increase in PMIMax", "setting": "[2]; [5]", "value": 26, "unit": "%"}, {"measurement": "Union Ratio, greater by", "setting": "[2]; vs saline, 6 weeks, p<0.01", "value": 76, "unit": "%"}, {"measurement": "Intramedullary penetration depth, greater by", "setting": "[2]; vs saline, p=0.12", "value": 28, "unit": "%"}, {"measurement": "Energy to failure", "setting": "[3]; [6]", "value": "0.25 (0.31)"}, {"measurement": "Normalized Rotation at TUlt", "setting": "[3]; [6]", "value": "0.97 (0.23) deg/mm gage length"}, {"measurement": "Ultimate Torque", "setting": "[3]; [6]", "value": "13.5 (4.7) N*mm"}, {"measurement": "normalized rotation at peak torque", "setting": "[3]; 6 weeks", "value": "0.97 degrees per mm of gage length"}, {"measurement": "stiffness as share of normal unoperated femur properties", "setting": "[3]; after 6 weeks of healing", "value": "~120", "unit": "%"}, {"measurement": "strength as share of normal unoperated femur properties", "setting": "[3]; after 6 weeks of healing", "value": "~67", "unit": "%"}, {"measurement": "specimens failing in \"early union\" mode", "setting": "[3]; [7]", "value": 2}, {"measurement": "specimens with \"mature union\" failure", "setting": "[3]; [7]", "value": 1}, {"measurement": "enhancement in ultimate torque", "setting": "[3]; vs saline, 6 weeks", "value": 1.65, "unit": "fold"}, {"measurement": "stiffness relative to saline (times stiffer)", "setting": "[3]; vs saline, 6 weeks", "value": 3.3, "unit": "times"}]}]}
